Source: ChEMBL document CHEMBL5303304, “EUbOPEN Chemogenomics Library - IncuCyte” (2023)

Experiments:
Format in all cases: toxicity, cell-based
Fibroblast = assay: Incucyte cell viability with human fibroblast; conditions: 10 µM, compound concentration 10 uM
U2OS = assay: Incucyte cell viability with U2OS; conditions: human, 10 µM, compound concentration 10 uM
HEK-293T = assay: Incucyte cell viability with HEK293T; conditions: human, 10 µM, compound concentration 10 uM
Note: unitless GR value; below 1 slowed growth and below 0 cell loss.

| Compound | Growth Rate (Fibroblast; 0 h, replicate number 1) | Growth Rate (Fibroblast; 0 h, replicate number 2) | Growth Rate (U2OS; 6 h, replicate number 1) | Growth Rate (U2OS; 12 h, replicate number 1) | Growth Rate (U2OS; 18 h, replicate number 1) | Growth Rate (U2OS; 18 h, replicate number 2) | Growth Rate (U2OS; 24 h, replicate number 1) | Growth Rate (U2OS; 24 h, replicate number 2) | Growth Rate (HEK-293T; 0 h, replicate number 1) | Growth Rate (Fibroblast; 6 h, replicate number 2) | Growth Rate (Fibroblast; 12 h, replicate number 1) | Growth Rate (Fibroblast; 12 h, replicate number 2) | Growth Rate (Fibroblast; 18 h, replicate number 2) | Growth Rate (U2OS; 0 h, replicate number 1) | Growth Rate (U2OS; 0 h, replicate number 2) | Growth Rate (U2OS; 6 h, replicate number 2) | Growth Rate (U2OS; 12 h, replicate number 2) | Growth Rate (HEK-293T; 0 h, replicate number 2) | Growth Rate (HEK-293T; 6 h, replicate number 2) | Growth Rate (Fibroblast; 18 h, replicate number 1) | other results |
| --- | --- | --- | --- | --- | --- | --- | --- | --- | --- | --- | --- | --- | --- | --- | --- | --- | --- | --- | --- | --- | --- |
| O=C(Nc1ccnc(NC(=O)C2CC2)c1)c1c(Cl)cccc1Cl | -0.14 | -0.81 | 0.46 | -0.05 | 0.81 | 0.93 | 0.98 | 0.84 | -0.99 | – | – | – | – | – | – | – | – | – | – | – | – |
| O=C(O)CNC(=O)c1c(O)c2ccccc2n(Cc2ccccc2)c1=O | – | 0.56 | – | 0.92 | 0.86 | 0.9 | – | 0.97 | -0.08 | 0.61 | 0.75 | 0.68 | 0.94 | 0.29 | 0.34 | 0.74 | 0.94 | -0.1 | – | – | Growth Rate (HEK-293T; 12 h, replicate number 2): 0.91; Growth Rate (HEK-293T; 18 h, replicate number 2): 0.99; Growth Rate (HEK-293T; 24 h, replicate number 2): 0.93 |
| N#Cc1cccc(-c2c[nH]c3ncnc(N4CCOCC4)c23)c1 | -0.42 | -0.76 | 0.91 | 0.88 | 0.31 | 0.94 | 0.97 | 0.98 | -0.86 | – | – | – | – | – | – | – | – | – | – | – | – |
| Nc1nccc(-c2c(-c3ccc(F)cc3)ncn2C2CCN(Cc3ccon3)CC2)n1 | – | -0.11 | 0.99 | – | – | 0.72 | – | 0.66 | 0.09 | – | – | – | – | – | – | 0.8 | 0.75 | – | 0.91 | – | – |
| Clc1ccc(-c2nc3sccn3c2/C=N/OCc2ccc(Cl)c(Cl)c2)cc1 | – | 0.32 | – | 0.92 | 0.87 | 0.95 | – | 0.93 | -0.74 | – | 0.58 | – | – | 0.48 | – | 0.91 | 0.89 | -0.64 | 1 | 0.63 | Growth Rate (Fibroblast; 6 h, replicate number 1): 0.02; Growth Rate (Fibroblast; 24 h, replicate number 1): 0.85; Growth Rate (HEK-293T; 12 h, replicate number 2): 1 |
| CCOP(=O)(OCC)C(=Cc1cc(C(C)(C)C)c(O)c(C(C)(C)C)c1)P(=O)(OCC)OCC | – | 0.24 | – | – | – | 0.75 | – | 0.77 | 0.16 | 0.08 | 0.78 | – | 0.7 | – | 0.17 | 0.36 | 0.63 | -0.99 | 0.25 | 0.39 | Growth Rate (Fibroblast; 6 h, replicate number 1): 0.57; Growth Rate (Fibroblast; 24 h, replicate number 1): 0.61; Growth Rate (HEK-293T; 12 h, replicate number 2): 0.55; Growth Rate (HEK-293T; 18 h, replicate number 1): 0.94; Growth Rate (HEK-293T; 18 h, replicate number 2): 0.79; Growth Rate (HEK-293T; 24 h, replicate number 2): 0.95 |
| Cc1ccc(S(=O)(=O)O)cc1.Cn1cc(Nc2nccc(N3CC4CCC(C3)N4C(=O)[C@@H]3CC3(F)F)n2)cn1 | 0.69 | 0.55 | 0.03 | -0.28 | – | 0.84 | – | 0.8 | 0.13 | 0.12 | 0.8 | 0.69 | 0.88 | – | 0.58 | 0.95 | 0.96 | – | 0.93 | 0.4 | Growth Rate (Fibroblast; 6 h, replicate number 1): 0.01; Growth Rate (Fibroblast; 24 h, replicate number 1): 1; Growth Rate (HEK-293T; 18 h, replicate number 2): 0.98 |
| COc1ccc(C(=O)N[C@H](C)c2cccc(C(=O)Nc3nc4c(s3)CN(C)CC4)c2)cc1C.O=C(O)C(F)(F)F | 0.21 | -0.72 | – | – | – | 0.97 | – | 0.88 | -0.36 | – | – | – | – | – | – | – | – | – | – | – | – |
| CN(C)[C@H]1C[C@H](n2cnc(-c3ccc(F)cn3)c2-c2ccnc3[nH]ccc23)C1 | – | 0.15 | – | – | – | 0.94 | – | 0.85 | 0.9 | – | 0.89 | – | – | 0.83 | – | 0.94 | 0.81 | -0.95 | 0.95 | 0.84 | – |
| COc1cc2ncnc(N[C@H](C)c3ccccc3)c2cc1OC1CCN(S(C)(=O)=O)CC1.Cl | 0.4 | – | 0.77 | 0.89 | 0.8 | – | 0.74 | – | 0.37 | 0.39 | – | 0.61 | – | 0.65 | – | – | – | -0.04 | – | – | Growth Rate (HEK-293T; 12 h, replicate number 2): 0.89 |
| C[C@H](CCOc1cccc(CC(=O)O)c1)N(Cc1cccc(C(F)(F)F)c1Cl)CC(c1ccccc1)c1ccccc1.Cl | 0.93 | – | 0.93 | – | 0.83 | – | 0.93 | – | -0.43 | 0.01 | 0.72 | 0.55 | 0.23 | 0.53 | -0.96 | 1 | – | – | – | 0.83 | Growth Rate (Fibroblast; 6 h, replicate number 1): 0.72; Growth Rate (Fibroblast; 24 h, replicate number 1): 0.64; Growth Rate (Fibroblast; 24 h, replicate number 2): 0.52; Growth Rate (HEK-293T; 18 h, replicate number 2): 1 |
| CN(C)c1ncc2cc(-c3ccc(-c4ncccc4F)cc3Cl)c(=O)n(C[C@H]3OC[C@H](N)CO3)c2n1 | -0.2 | -0.89 | – | – | – | 0.99 | – | – | -1 | – | – | – | – | – | – | – | 0.96 | – | – | – | – |
| CN1CCC(F)(Cn2cnc(-c3ccc(F)cn3)c2-c2ccnc3[nH]ccc23)CC1 | – | – | 0.99 | 0.8 | -0.61 | 0.94 | 0.84 | 0.68 | 0.3 | 0.29 | 0.6 | 0.78 | 0.68 | 0.97 | – | 0.77 | 0.87 | -0.77 | 0.85 | 0.66 | Growth Rate (Fibroblast; 6 h, replicate number 1): -0.23; Growth Rate (Fibroblast; 24 h, replicate number 1): 0.81; Growth Rate (Fibroblast; 24 h, replicate number 2): 0.8; Growth Rate (HEK-293T; 6 h, replicate number 1): 0.99; Growth Rate (HEK-293T; 12 h, replicate number 2): 0.86; Growth Rate (HEK-293T; 18 h, replicate number 1): 0.93; Growth Rate (HEK-293T; 24 h, replicate number 1): 0.9; Growth Rate (HEK-293T; 24 h, replicate number 2): 0.74 |
| COc1cc(-c2cn[nH]c2)ccc1C(=O)Nc1ccc2c(c1)CCNCC2.Cl | 0.68 | 0.05 | – | 0.82 | 0.75 | 0.59 | 0.87 | 0.63 | -0.67 | – | – | – | – | – | – | 0.77 | 0.78 | – | – | – | – |
| NC(=O)c1sc2nc(N3CCC(NC[C@H](O)c4ccccn4)CC3)cc(C(F)(F)F)c2c1N | 0.86 | 0.11 | – | 0.93 | – | 0.69 | – | -0.15 | -0.64 | – | 0.88 | – | – | 0.49 | 0.65 | -0.12 | 0.54 | – | – | – | – |
